What was measured:
[1] = target: H1047R PIK3CA enzyme (Homo sapiens, UniProt P42336, H1047R); test: ADP-Glo Biochemical PIK3CA Kinase Assay
[2] = cells; conditions: Homo sapiens, MCF-10A, read-out: MCF10A IC50

H1047R PIK3CA enzyme, sequence (P42336 whole entry H1047R): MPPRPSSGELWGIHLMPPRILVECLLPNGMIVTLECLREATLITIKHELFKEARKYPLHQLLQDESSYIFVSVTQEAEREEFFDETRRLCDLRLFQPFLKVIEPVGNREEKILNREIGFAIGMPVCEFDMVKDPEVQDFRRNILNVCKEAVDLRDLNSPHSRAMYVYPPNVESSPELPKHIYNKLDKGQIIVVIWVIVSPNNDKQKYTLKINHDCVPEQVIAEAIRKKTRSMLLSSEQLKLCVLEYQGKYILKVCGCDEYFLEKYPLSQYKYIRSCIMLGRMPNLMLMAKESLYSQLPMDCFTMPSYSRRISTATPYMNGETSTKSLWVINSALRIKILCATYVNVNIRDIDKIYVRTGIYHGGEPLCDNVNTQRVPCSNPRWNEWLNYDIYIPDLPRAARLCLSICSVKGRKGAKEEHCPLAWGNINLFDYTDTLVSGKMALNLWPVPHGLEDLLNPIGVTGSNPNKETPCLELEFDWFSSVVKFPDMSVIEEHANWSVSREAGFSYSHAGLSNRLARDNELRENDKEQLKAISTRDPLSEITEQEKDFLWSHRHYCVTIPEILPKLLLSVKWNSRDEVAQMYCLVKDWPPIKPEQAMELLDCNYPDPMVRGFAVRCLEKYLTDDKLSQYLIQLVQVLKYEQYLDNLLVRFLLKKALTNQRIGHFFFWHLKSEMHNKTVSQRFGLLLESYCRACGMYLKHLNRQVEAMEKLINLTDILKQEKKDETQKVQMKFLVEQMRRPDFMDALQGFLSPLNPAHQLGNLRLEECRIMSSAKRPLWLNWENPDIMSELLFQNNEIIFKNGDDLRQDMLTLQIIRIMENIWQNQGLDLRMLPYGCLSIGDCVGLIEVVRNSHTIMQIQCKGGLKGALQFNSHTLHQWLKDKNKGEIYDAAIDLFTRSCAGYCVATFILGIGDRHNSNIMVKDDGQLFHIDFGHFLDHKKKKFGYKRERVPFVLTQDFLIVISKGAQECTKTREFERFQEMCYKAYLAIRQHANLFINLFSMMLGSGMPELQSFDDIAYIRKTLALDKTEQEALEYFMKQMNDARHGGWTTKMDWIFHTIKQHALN
H1047R PIK3CA enzyme, sequence (P27986 whole entry partner): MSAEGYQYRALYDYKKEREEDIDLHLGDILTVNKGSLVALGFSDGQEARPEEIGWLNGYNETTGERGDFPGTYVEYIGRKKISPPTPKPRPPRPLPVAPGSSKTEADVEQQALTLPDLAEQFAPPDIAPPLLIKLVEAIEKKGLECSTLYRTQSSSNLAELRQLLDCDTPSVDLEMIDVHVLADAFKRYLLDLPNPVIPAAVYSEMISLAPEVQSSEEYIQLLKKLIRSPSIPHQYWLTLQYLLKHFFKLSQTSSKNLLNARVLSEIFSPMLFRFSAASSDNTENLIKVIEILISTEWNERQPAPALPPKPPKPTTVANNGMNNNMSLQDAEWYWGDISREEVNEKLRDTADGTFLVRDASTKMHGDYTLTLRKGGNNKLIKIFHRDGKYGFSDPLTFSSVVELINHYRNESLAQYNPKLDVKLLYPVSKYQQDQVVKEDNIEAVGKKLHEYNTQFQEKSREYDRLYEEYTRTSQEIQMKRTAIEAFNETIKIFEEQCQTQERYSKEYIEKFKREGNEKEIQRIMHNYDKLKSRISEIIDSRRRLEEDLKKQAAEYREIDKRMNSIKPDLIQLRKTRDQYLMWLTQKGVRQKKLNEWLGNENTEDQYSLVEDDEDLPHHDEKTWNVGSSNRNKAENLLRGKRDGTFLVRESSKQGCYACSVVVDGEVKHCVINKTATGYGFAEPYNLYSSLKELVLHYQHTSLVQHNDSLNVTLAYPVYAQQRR

SMILES | IC50 [1] | IC50 [2]
CC(=O)Nc1cc(NC(=O)N2C[C@](O)(C(F)(F)F)c3cc(F)ccc32)c2c(c1)C(=O)N[C@@H]2c1cc(F)ccc1Cl (single isomer, unassigned) [Compound I-2573] | ≤ 0.1 µM | < 1 µM
O=C1N[C@H](c2cc(F)ccc2Cl)c2c(NC(=O)N3C[C@@](O)(C(F)(F)F)c4cc(F)ccc43)cc(-n3ccnn3)cc21 (single isomer, unassigned) [Compound I-2547] | ≤ 0.1 µM | < 1 µM
O=C(Nc1cc(-c2cc3cccnc3[nH]2)cc2c1C(c1cc(F)ccc1Cl)NC2=O)c1cc(F)cc(C(F)(F)F)c1 (stereo not shown) [Compound I-972] | ≤ 0.1 µM | < 1 µM
Nc1ncc(-c2cc(NC(=O)c3cc(F)cc(C(F)(F)F)c3)c3c(c2)C(=O)N[C@@H]3c2cc(F)ccc2Cl)cn1 (stereo in doubt) [Compound I-1003] | ≤ 0.1 µM | < 1 µM
CC(C)(C#N)n1cc(-c2cc(NC(=O)N3C[C@@](O)(C(F)(F)F)c4cc(F)ccc43)c3c(c2)C(=O)N[C@@H]3c2cc(F)ccc2Cl)cn1 (single isomer, unassigned) [Compound I-2613] | ≤ 0.1 µM | < 1 µM
O=C(Nc1cc(N2CCn3ncnc3C2)cc2c1C(c1cc(F)ccc1Cl)NC2=O)c1cc(F)cc(C(F)(F)F)c1 (stereo not shown) [Compound I-1040] | ≤ 0.1 µM | 1 to 5 µM
O=C1N[C@@H](c2cc(F)ccc2Cl)c2c(NC(=O)N3C[C@@H](O)c4cc(F)ccc43)cccc21 (single isomer, unassigned) [Compound I-2127] | ≤ 0.1 µM | < 1 µM
O=C(Nc1cc(NC2=NC[C@@H](C(F)(F)F)O2)cc2c1[C@H](c1cc(F)ccc1Cl)NC2=O)c1cc(F)cc(C(F)(F)F)c1 (single isomer, unassigned) [Compound I-2324] | ≤ 0.1 µM | < 1 µM
N#CCc1cc(NC(=O)c2cc(F)cc(C(F)(F)F)c2)c2c(c1)C(=O)N[C@H]2c1cc(F)ccc1Cl (racemic) [Compound I-1088] | ≤ 0.1 µM | < 1 µM
O=C1NC(c2cc(F)ccc2Cl)c2c(NC(=O)N3CC(O)c4ccc(Cl)cc43)cccc21 (mixture of isomers) [Compound I-2464] | ≤ 0.1 µM | 5 to 10 µM
CNc1cc(NC(=O)N2C[C@](O)(C(F)(F)F)c3cc(F)ccc32)c2c(c1C#N)C(=O)N[C@@H]2c1cc(F)ccc1Cl (single isomer, unassigned) [Compound I-2609] | ≤ 0.1 µM | < 1 µM
O=C(Nc1cc(-c2nc3ncccc3[nH]2)cc2c1C(c1cc(F)ccc1Cl)NC2=O)c1cc(F)cc(C(F)(F)F)c1 (stereo not shown) [Compound I-1026] | ≤ 0.1 µM | < 1 µM
O=C(Nc1cc(-c2cnn(C3CC3)c2)cc2c1[C@H](c1cc(F)ccc1Cl)NC2=O)c1cc(F)cc(C(F)(F)F)c1 (single isomer, unassigned) [Compound I-1022] | ≤ 0.1 µM | < 1 µM
COc1ccc(CNCc2cc(NC(=O)c3nsc4ccccc34)c3c(c2)C(=O)NC3c2cc(F)ccc2Cl)cc1 (stereo not shown) [Compound I-155] | ≤ 0.1 µM | 1 to 5 µM
O=C(Nc1cc(-c2cncnc2)cc2c1C(c1cc(F)ccc1Cl)NC2=O)c1cc(F)cc(C(F)(F)F)c1 (stereo not shown) [Compound I-967] | ≤ 0.1 µM | < 1 µM
O=C(Nc1cc(-c2nccs2)cc2c1C(c1cc(F)ccc1Cl)NC2=O)c1cc(F)cc(C(F)(F)F)c1 (stereo not shown) [Compound I-921] | ≤ 0.1 µM | < 1 µM
Cn1cc(Nc2cc(NC(=O)c3cc(F)cc(C(F)(F)F)c3)c3c(c2)C(=O)NC3c2cc(F)ccc2Cl)cn1 (stereo not shown) [Compound I-917] | ≤ 0.1 µM | < 1 µM
O=C1NC(c2ccccc2C(F)F)c2c(NC(=O)c3nsc4ccccc34)cccc21 (stereo not shown) [Compound I-122] | ≤ 0.1 µM | 1 to 5 µM
Cn1cc(Nc2cc(NC(=O)c3cc(F)cc(C(F)(F)F)c3)c3c(c2)C(=O)NC3c2cc(F)ccc2Cl)nn1 (stereo not shown) [Compound I-965] | ≤ 0.1 µM | < 1 µM
O=C(Nc1cc(-c2ccc3ncnn3c2)cc2c1[C@@H](c1cc(F)c(F)cc1Cl)NC2=O)c1cc(F)cc(C(F)(F)F)c1 [Compound I-1061] | ≤ 0.1 µM | < 1 µM
N#Cc1cnccc1-c1cc(NC(=O)c2cc(F)cc(C(F)(F)F)c2)c2c(c1)C(=O)NC2c1cc(F)ccc1Cl (stereo not shown) [Compound I-1098] | ≤ 0.1 µM | < 1 µM
Cc1coc(Nc2cc(NC(=O)c3cc(F)cc(C(F)(F)F)c3)c3c(c2)C(=O)NC3c2cc(F)ccc2Cl)n1 (stereo not shown) [Compound I-964] | ≤ 0.1 µM | < 1 µM
O=C(Nc1cc(-c2ccc3ncnn3c2)cc2c1C(c1cc(F)ccc1C(F)F)NC2=O)c1cc(F)cc(C(F)(F)F)c1 (stereo not shown) [Compound I-1057] | ≤ 0.1 µM | < 1 µM
N#CCc1cc(NC(=O)N2C[C@](O)(C(F)F)c3cc(F)ccc32)c2c(c1)C(=O)N[C@H]2c1cc(F)ccc1Cl (single isomer, unassigned) [Compound I-2601] | ≤ 0.1 µM | < 1 µM
CC1(Cc2cc(NC(=O)N3C[C@](O)(C(F)(F)F)c4cc(F)ccc43)c3c(c2)C(=O)N[C@@H]3c2cc(F)ccc2Cl)COC1 (single isomer, unassigned) [Compound I-2657] | ≤ 0.1 µM | < 1 µM
CC(=O)Nc1cc(NC(=O)c2csc3ccccc23)c2c(c1)C(=O)NC2c1ccccc1C (stereo not shown) [Compound I-52] | ≤ 0.1 µM | < 1 µM

— patent US12581252B2, “Substituted pyrrolo[3,4-b]pyridines as PI3K-α inhibitors” (Relay Therapeutics, Inc., priority 2020, dated 2026)
